In patent US20230023847A1, “COMPOSITION FOR PREVENTING HAIR LOSS AND PROMOTING HAIR REGROWTH” (LG HOUSEHOLD & HEALTH CARE LTD., priority 2020, published 2023):

Key:
Dkk-1 = experiment: Inhibition of expression of hair follicle catagen factor (Dkk-1 ELISA); type: cell-based; conditions: 24 hours, human dermal papilla cells (hDPCs)
Method: The inhibition of the expression of the hair follicle catagen marker Dkk-1 was investigated using human dermal papilla cells (hDPCs). The human dermal papilla cells were purchased from PromoCell. The hDPCs were subcultured in an hDPC culture medium (follicle dermal papilla cell growth medium; PromoCell, Heidelberg, Germany) containing a medium additive (Supplement Mix; PromoCell, Heidelberg, Germany), 100 units/mL penicillin and […] streptomycin under the condition of 37° C. and 5% CO2. One million subcultured hDPCs were seeded onto a 100-mm cell culture dish and then cultured in an incubator at 37° C. 48 hours later, after treating with each of gypsogenin 3-O-β-D-glucuronopyranoside, deapioplatycodin D, congmunoside X and chikusetsusaponin IVa at 2 ppm or 20 ppm for 24 hours, the cell culture was subjected to Dkk-1 ELISA assay (R&D Systems, USA). The protein amount of each test group was identified by BCA assay and corrected with the result of Dkk-1 ELISA.

androgen receptor = experiment: Androgenic activity: transcriptional activation (MMTV-Luc luciferase reporter) assay with 1 nM DHT; type: cell-based, human; conditions: 24 hours
Method: (§1) The stable cell line was maintained by subculturing using RPMI1640 and 10% fetal bovine serum (GIBCO BRL, Gaithersburg, Md., USA). For transcriptional activation assay, the cells were seeded in a 96-well plate, with 25,000 cells per well, while replacing the medium with phenol red-free RPMI1640 containing 5% charcoal-stripped fetal bovine serum. […] The cell culture was treated and incubated with CCK-8 at 1:10 for 2 hours. 2 hour later, the absorbance of each well was measured at 450 nm. All the experiments were 3 times and the absorbance was averaged. […] The experimental result is shown in Table 1, Table 2 and FIGS. 1-4.

[1] = test system: 22Rv1 human prostate cancer cells; experiment: CCK-8 assay conducted in parallel to investigate cytotoxicity (cell viability)
Method: as §1

SMILES | Relative expression level of Dkk-1 (% of untreated group) (Dkk-1; 2 ppm) | Relative expression level of Dkk-1 (% of untreated group) (Dkk-1; 20 ppm) | Androgenic activity (% of 1 nM DHT) (androgen receptor; 2 ppm together with 1 nM DHT) | Androgenic activity (% of 1 nM DHT) (androgen receptor; 20 ppm together with 1 nM DHT) | Androgenic activity (% of 1 nM DHT) (androgen receptor; 200 ppm together with 1 nM DHT) | Cell viability (% of 1 nM DHT) ([1]; 0.2 ppm together with 1 nM DHT, CCK-8) | Cell viability (% of 1 nM DHT) ([1]; 2 ppm together with 1 nM DHT, CCK-8) | Cell viability (% of 1 nM DHT) ([1]; 20 ppm together with 1 nM DHT, CCK-8) | Androgenic activity (% of 1 nM DHT) (androgen receptor; 0.2 ppm together with 1 nM DHT) | Cell viability (% of 1 nM DHT) ([1]; DHT 1 nM alone, CCK-8, 22Rv1 stable cell line) | Androgenic activity (% of 1 nM DHT) (androgen receptor; DHT 1 nM alone, 22Rv1 MMTV-Luc stable cell line)
CC1(C)CC[C@]2(C(=O)O[C@@H]3O[C@H](CO)[C@@H](O)[C@H](O)[C@H]3O)CC[C@]3(C)C(=CC[C@@H]4[C@@]5(C)CC[C@H](O[C@@H]6O[C@H](CO)[C@@H](O)[C@H](O[C@@H]7O[C@H](CO)[C@@H](O)[C@H](O[C@@H]8O[C@H](CO)[C@@H](O)[C@H](O)[C@H]8O)[C@H]7O)[C@H]6O[C@@H]6O[C@H](CO)[C@@H](O)[C@H](O)[C@H]6O)C(C)(C)[C@@H]5CC[C@]43C)[C@@H]2C1 [Congmunoside X, congmunoside X] | 90.8 % of untreated group | 81.2 % of untreated group | 104.4 % of 1 nM DHT | 85.9 % of 1 nM DHT | 14.9 % of 1 nM DHT | – | – | – | – | – | –
C[C@@H]1O[C@@H](O[C@H]2[C@H](OC(=O)[C@]34CCC(C)(C)C[C@H]3C3=CC[C@@H]5[C@@]6(C)C[C@H](O)[C@H](O[C@@H]7O[C@H](CO)[C@@H](O)[C@H](O)[C@H]7O)C(CO)(CO)[C@@H]6CC[C@@]5(C)[C@]3(C)C[C@H]4O)OC[C@H](O)[C@@H]2O)[C@H](O)[C@H](O)[C@H]1O[C@@H]1OC[C@@H](O)[C@H](O)[C@H]1O [Deapioplatycodin D, deapioplatycodin D] | 86.4 % of untreated group | 76.7 % of untreated group | 72.2 % of 1 nM DHT | 34.9 % of 1 nM DHT | – | 102.2 % of 1 nM DHT | 99.4 % of 1 nM DHT | 81.6 % of 1 nM DHT | 89.1 % of 1 nM DHT | – | –
CC1(C)CC[C@]2(C(=O)O[C@@H]3O[C@H](CO)[C@@H](O)[C@H](O)[C@H]3O)CC[C@]3(C)C(=CC[C@@H]4[C@@]5(C)CC[C@H](O[C@@H]6O[C@H](C(=O)O)[C@@H](O)[C@H](O)[C@H]6O)C(C)(C)[C@@H]5CC[C@]43C)[C@@H]2C1 [Chikusetsusaponin IVa, chikusetsusaponin IVa] | 85.2 % of untreated group | 70.9 % of untreated group | 79 % of 1 nM DHT | 77.5 % of 1 nM DHT | – | – | – | – | 84.7 % of 1 nM DHT | – | –
CC1(C)CC[C@]2(C(=O)O)CC[C@]3(C)C(=CC[C@@H]4[C@@]5(C)CC[C@H](O[C@@H]6O[C@H](C(=O)O)[C@@H](O)[C@H](O)[C@H]6O)[C@@](C)(C=O)[C@@H]5CC[C@]43C)[C@@H]2C1 [Gypsogenin 3-O-β-D-glucuronopyranoside, gypsogenin 3-O-β-D-glucuronopyranoside] | 96.5 % of untreated group | 77.5 % of untreated group | 79.1 % of 1 nM DHT | −9.8 % of 1 nM DHT | – | – | – | – | 98.1 % of 1 nM DHT | – | –
C[C@]12CCC(=O)C[C@@H]1CC[C@@H]1[C@@H]2CC[C@]2(C)[C@@H](O)CC[C@@H]12 [DHT, dihydrotestosterone, reference compound] | – | – | – | – | – | – | – | – | – | 100.0 % of 1 nM DHT | 100.0 % of 1 nM DHT
